The source of these data is publication PMC11844072, “Novel 5,6-dichlorobenzimidazole derivatives as dual BRAFWT and BRAFV600E inhibitors: design, synthesis, anti-cancer activity and molecular dynamics simulations” (BMC Chemistry, 2025).

The target of one experiment is T1, BRAFWT (Homo sapiens, UniProt P15056).
T1 construct: purchased BPS Biosciences 78316
As to conditions: cited from earlier work.

The test system of the next experiment is PDGFR-β. Also noted: method as in PMID 35636123. As to conditions: cited from earlier work.
For the next experiment, the system named is FLT-3. Also noted: method as in PMID 35636123. As to conditions: cited from earlier work.
The subject of a further experiment is c-KIT. The arrangement: method as in PMID 35636123. As to conditions: cited from earlier work.
A further experiment has as its target BRAFV600E (Homo sapiens, UniProt P15056, V600E). Also noted: purchased BPS Biosciences 48688. The note with it: cited from earlier work.
The target of the next experiment is VEGFR-2 (Homo sapiens, UniProt P35968). Also noted: purchased. The note with it: cited from earlier work.
The target in a further experiment is FGFR-1 (Homo sapiens, UniProt P11362). The arrangement: purchased. The note with it: cited from earlier work.
The test system of a further experiment is HSF cell line. The experiment is described as follows: Cytotoxicity on HSF normal cell line (SRB assay). As to conditions: HSF normal human skin fibroblast; mean of three ± SD. In kind it is cell-based. The procedure: The dichlorobenzimidazole derivative 10h was tested in Nawah scientific—Cairo—Egypt for its cytotoxic activity on HSF cell line as stated in the Additional file A [53, 54].
6. Analysis of 10h on HSF normal cell line
Human Skin Fibroblast (HSF) was obtained from Nawah Scientific Inc., (Mokatam, Cairo, Egypt). Cells were maintained in DMEM media supplemented with […] of streptomycin, 100 units/mL of penicillin and 10% of heat-inactivated fetal bovine serum in humidified, 5% (v/v) CO2atmosphere at 37 °C. Cell viability was assessed by SRB assay. Aliquots of 100 μL cell suspension (5x10^3 cells) were in 96-well plates and incubated in complete media for 24 h. Cells were treated with another aliquot of 100 μL media containing drugs at various concentrations.
After drug exposure, cells were fixed by replacing media with 150 μL of 10% TCA and incubated at 4 °C for 1 h. The TCA solution was removed, and the cells were washed 5 times with distilled water. Aliquots of 70 μL SRB solution (0.4% w/v) were added and incubated in a dark place at room temperature for 10 min. Plates were washed 3 times with 1% acetic acid and allowed to air-dry overnight. Then, 150 μL of TRIS (10 mM) was added to dissolve protein-bound SRB stain; the absorbance was measured at 540 nm using an Infinite F50 microplate reader (TECAN, Switzerland).
6.2. Dose response curve of 10h on HSF normal cell line
Figure 66. […]
(Sulforhodamine B stains cellular protein and so reports cell mass.)

A further experiment has as its system HepG2 cell line. The arrangement: method as in PMID 28505536, PMID 32053964. As to conditions: antiproliferative activity; cited from earlier work.

T1 sequence (P15056 whole entry): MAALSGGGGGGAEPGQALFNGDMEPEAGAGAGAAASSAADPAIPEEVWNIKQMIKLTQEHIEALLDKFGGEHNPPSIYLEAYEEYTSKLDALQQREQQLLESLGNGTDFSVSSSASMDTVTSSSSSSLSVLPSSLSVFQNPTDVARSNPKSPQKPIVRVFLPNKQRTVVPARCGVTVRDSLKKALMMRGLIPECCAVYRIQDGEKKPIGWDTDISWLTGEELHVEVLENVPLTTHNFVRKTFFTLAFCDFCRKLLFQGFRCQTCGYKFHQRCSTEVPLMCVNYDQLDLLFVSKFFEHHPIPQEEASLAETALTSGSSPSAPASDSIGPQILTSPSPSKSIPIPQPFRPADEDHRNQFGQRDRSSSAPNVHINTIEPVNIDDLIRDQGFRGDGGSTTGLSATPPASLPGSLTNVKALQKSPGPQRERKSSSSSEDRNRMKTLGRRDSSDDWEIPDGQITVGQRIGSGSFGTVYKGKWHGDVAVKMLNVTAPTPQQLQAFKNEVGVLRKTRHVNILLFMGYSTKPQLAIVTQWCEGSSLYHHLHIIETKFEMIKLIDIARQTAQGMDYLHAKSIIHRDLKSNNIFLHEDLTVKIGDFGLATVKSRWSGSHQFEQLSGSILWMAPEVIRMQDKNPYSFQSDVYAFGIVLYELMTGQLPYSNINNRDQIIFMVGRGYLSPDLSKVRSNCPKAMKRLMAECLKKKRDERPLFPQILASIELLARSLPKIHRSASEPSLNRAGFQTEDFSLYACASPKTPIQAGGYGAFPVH
Sequence of BRAFV600E (P15056 whole entry V600E): as the sequence (P15056 whole entry) above, with V600E counted along it
Sequence of VEGFR-2 (P35968 20-1356): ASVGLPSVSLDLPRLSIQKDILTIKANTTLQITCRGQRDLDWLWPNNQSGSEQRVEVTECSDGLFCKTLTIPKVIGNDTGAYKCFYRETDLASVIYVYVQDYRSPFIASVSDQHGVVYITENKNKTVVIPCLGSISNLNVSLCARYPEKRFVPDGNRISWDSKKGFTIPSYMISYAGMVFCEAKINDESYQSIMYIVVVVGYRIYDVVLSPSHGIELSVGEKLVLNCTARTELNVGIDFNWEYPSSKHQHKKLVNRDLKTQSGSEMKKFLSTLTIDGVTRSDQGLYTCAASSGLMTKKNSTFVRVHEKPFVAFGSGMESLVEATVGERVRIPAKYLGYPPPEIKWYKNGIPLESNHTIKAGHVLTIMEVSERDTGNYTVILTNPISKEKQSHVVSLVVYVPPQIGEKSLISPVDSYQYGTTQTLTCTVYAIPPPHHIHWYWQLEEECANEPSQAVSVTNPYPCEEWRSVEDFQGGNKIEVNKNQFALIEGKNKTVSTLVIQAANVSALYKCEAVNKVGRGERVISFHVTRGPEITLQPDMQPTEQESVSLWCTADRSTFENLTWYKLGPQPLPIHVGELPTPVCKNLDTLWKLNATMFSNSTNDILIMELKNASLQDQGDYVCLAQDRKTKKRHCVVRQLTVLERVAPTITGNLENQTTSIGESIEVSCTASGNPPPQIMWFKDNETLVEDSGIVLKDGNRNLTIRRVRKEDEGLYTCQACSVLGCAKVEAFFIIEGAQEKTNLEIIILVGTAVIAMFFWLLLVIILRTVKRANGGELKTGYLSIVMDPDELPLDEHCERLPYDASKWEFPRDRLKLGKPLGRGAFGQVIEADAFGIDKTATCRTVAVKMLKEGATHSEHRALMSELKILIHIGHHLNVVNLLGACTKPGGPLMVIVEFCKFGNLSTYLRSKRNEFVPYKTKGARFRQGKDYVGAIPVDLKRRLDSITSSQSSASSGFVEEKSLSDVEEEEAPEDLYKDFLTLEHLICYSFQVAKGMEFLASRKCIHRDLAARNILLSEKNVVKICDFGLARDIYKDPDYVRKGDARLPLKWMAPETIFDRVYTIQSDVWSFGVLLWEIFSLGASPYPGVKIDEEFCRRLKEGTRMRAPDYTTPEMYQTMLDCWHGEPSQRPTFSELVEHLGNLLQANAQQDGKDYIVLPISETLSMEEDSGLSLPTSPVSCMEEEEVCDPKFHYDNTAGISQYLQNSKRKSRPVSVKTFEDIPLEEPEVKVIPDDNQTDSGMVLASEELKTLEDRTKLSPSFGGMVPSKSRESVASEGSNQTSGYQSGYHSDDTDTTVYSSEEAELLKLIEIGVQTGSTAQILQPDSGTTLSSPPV
Sequence of FGFR-1 (P11362 22-822): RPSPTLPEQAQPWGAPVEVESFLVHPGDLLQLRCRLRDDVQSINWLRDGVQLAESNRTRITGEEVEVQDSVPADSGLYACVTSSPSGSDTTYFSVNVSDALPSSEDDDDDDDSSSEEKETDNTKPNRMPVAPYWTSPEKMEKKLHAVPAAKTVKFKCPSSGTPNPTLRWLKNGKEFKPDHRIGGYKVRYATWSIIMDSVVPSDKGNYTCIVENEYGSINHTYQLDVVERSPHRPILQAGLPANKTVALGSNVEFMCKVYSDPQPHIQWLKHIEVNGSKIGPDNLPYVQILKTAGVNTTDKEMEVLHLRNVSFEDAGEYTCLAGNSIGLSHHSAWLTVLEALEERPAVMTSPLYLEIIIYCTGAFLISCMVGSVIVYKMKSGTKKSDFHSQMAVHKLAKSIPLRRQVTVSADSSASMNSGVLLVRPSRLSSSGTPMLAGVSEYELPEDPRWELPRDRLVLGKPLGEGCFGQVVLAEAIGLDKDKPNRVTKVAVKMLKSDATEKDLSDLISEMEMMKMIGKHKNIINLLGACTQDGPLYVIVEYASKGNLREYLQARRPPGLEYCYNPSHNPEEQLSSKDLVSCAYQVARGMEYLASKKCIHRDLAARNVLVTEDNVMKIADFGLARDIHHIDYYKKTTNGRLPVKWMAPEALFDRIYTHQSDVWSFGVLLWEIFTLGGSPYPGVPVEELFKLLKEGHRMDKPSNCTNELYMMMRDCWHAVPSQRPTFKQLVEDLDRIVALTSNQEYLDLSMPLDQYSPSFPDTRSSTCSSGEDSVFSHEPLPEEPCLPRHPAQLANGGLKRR

For the molecule `Cc1ccc(-n2c(SCC(=O)Nc3ccc(-c4nc5ccccc5[nH]4)cc3)nc3ccccc3c2=O)cc1` [III], the IC50 (as a rule, the concentration that gives 50% inhibition) at BRAFWT is 6740 nM; in the experiment with PDGFR-β, 30 nM; with FLT-3, 130 nM; with c-KIT, 120 nM; on BRAFV600E, 2470 nM.
For `O=C1Nc2ccc(Br)cc2/C1=N\NC(=O)c1ccc2[nH]c(-c3ccccc3)nc2c1` [IV], the IC50 at BRAFWT was 20 nM; on VEGFR-2, 180 nM; on FGFR-1, 1650 nM; on BRAFV600E it was 1520 nM.
The molecule `CNC(=O)c1cc(Oc2ccc(NC(=O)Nc3ccc(Cl)c(C(F)(F)F)c3)cc2)ccn1` [Sorafenib, reference compound] showed an IC50 in the experiment with HSF cell line of 2250 ± 140 nM.
Consider `CC(C)c1nc2ccccc2n1CC(=O)N/N=C/c1cccc(OCc2ccccc2)c1` [V], for which the half-inhibitory concentration (IC50) in the experiment with HepG2 cell line was 1980 nM.
